Measured values published in patent US7611721B1, “Adjuvant combination formulations” (priority 2000, dated 2009).

Test system: P815 cells pulsed with HIVMN CTL epitope peptide
Test: CTL analysis of spleen cells (chromium release)
Assay type: cell-based
Conditions: separate experiments; Balb/c mice immunized with peptide
Protocol: FIG. 5 depicts the CTL activity of spleen cells isolated from mice seven days after secondary immunization. Spleen cells were harvested from groups of three Balb/c mice immunized on days 0 and 21 with 50 μg T1SP10MN(A) […] formulated with 50 μg MPL™ in 1% SE with or without 10 μg GM-CSF. Cells were cultured with the HIVMN CTL epitope peptide for seven days. IL-2 was added to the cultures for the last five days. Effector spleen cells were added to chromium-labelled P815 cells pulsed with HIVMN, another strain designated HIVIIIB or no peptide at the indicated ratios. Percent CTL activity was calculated as: […]
The protocols of Experiment 6 were followed regarding immunization of mice. The CTL activity of spleen cells isolated from mice seven days after secondary immunization was assessed. MPL™ SE was formulated with 50 μg MPL™ in 1% SE, with or without 10 μg GM-CSF, plus 50 μg T1SP10MN(A) (+Cys).
For CTL analysis, spleen cells were removed from immunized mice 14 days after primary, and seven days after secondary immunization. A protocol previously described (34) was essentially followed. […] Percent CTL activity was calculated as the percentage of chromium release using ((specific chromium release−spontaneous chromium release)/(maximal chromium release−spontaneous chromium release))×100. Chromium release was assessed after a six hour incubation period. […]

3-O-deacylated monophosphoryl lipid A [MPL ™]
Peptide-specific CTL responses: < 30%
